According to US20240246967A1, “AXL COMPOUNDS” (ARCUS BIOSCIENCES, INC., priority 2021, published 2024):

Columns and labels:
human MER = molecular target: T1, human MER (Homo sapiens, UniProt Q12866); assay: HTRF KinEASE-TK biochemical potency assay, MER; details: 1 nM MER, 700 μM ATP, 800 nM TK Substrate-biotin
T1 construct: purchased Invitrogen
T1 sequence (Q12866 21-999): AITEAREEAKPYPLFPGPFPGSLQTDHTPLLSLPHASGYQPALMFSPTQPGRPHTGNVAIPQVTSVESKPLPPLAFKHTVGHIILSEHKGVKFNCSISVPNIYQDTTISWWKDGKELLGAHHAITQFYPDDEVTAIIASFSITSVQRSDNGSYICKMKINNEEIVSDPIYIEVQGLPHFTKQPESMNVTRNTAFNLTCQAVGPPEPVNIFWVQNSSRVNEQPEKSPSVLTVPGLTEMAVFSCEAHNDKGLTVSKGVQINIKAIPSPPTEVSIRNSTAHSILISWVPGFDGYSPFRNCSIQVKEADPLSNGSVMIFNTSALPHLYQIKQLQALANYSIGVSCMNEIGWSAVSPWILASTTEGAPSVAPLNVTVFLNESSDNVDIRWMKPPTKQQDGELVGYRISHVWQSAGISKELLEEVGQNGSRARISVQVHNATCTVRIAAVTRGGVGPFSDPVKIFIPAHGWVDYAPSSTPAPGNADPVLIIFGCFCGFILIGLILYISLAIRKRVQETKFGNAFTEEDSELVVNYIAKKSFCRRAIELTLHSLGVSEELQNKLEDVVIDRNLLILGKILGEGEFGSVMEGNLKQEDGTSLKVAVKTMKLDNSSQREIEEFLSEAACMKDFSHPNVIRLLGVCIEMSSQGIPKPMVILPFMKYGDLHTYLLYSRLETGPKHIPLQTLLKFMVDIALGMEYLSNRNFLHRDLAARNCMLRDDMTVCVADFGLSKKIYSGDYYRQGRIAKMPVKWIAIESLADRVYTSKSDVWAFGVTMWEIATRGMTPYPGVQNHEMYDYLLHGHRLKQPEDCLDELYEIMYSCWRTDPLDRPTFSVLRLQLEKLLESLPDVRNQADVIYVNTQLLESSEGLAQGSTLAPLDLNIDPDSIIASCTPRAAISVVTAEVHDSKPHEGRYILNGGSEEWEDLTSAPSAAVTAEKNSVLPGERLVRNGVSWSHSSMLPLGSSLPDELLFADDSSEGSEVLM
Summary of the method: (§1)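 HTRF 665/620 nm read-out after streptavidin-XL665/anti-phosphotyrosine cryptate detection (1 h RT). Final reaction: 5 nM AXL or 1 nM TYRO3/MER, 800 nM TK substrate-biotin, 700 μM ATP, pH 7.4 HEPES buffer, 1% DMSO, 2 h RT, after 1 h enzyme–compound preincubation.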

human TYRO3 = molecular target: T2, human TYRO3 (Homo sapiens, UniProt Q06418); assay: HTRF KinEASE-TK biochemical potency assay, TYRO3; details: 1 nM TYRO3, 700 μM ATP, 800 nM TK Substrate-biotin
T2 construct: purchased Invitrogen
T2 sequence (Q06418 41-890): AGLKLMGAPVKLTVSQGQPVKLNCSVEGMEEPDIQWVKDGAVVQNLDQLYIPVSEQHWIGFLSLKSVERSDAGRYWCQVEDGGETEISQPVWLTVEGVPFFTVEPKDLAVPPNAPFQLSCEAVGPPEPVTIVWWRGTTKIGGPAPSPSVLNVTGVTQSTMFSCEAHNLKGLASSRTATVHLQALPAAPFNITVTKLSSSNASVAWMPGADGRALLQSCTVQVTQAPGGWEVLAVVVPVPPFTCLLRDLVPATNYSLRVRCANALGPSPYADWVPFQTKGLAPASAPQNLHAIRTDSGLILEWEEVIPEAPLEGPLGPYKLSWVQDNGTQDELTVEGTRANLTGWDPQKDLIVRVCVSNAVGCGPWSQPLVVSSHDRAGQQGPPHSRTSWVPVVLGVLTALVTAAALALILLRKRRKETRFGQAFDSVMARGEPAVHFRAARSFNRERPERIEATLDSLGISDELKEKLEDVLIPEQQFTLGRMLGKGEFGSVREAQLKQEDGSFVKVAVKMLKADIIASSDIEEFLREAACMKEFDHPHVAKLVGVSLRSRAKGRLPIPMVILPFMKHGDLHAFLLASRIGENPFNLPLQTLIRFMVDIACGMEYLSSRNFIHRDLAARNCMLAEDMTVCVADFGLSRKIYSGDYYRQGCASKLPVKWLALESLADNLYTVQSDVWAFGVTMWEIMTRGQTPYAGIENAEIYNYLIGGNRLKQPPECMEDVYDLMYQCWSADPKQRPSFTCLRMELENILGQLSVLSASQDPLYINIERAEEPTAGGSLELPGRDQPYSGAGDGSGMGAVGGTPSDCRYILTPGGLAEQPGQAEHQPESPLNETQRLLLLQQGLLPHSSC
Summary of the method: as §1

Row | IC50 (human MER) | IC50 (human TYRO3) | SMILES
1 | 100 to 1000 nM | 100 to 1000 nM | CC1(N2CCC[C@H]2CO)CCc2ccc(-c3cnc4[nH]nc(-c5ccc(S(=O)(=O)C6CC6)cc5)c4c3)cc2CC1 (stereo partly drawn) [Example 4, [(2S)-1-(2-{3-[4-(Cyclopropanesulfonyl)phenyl]-1H-pyrazolo[3,4-b]pyridin-5-yl}-7-methyl-6,7,8,9-tetrahydro-5H-benzo[7]annulen-7-yl)pyrrolidin-2-yl]methanol]
2 | 100 to 1000 nM | 100 to 1000 nM | COCCOc1ccc(-c2n[nH]c3ncc(-c4ccc5c(c4)CCC(C)(N4CCC[C@H]4C)CC5)cc23)cc1 (stereo partly drawn) [Example 110, 3-(4-(2-Methoxyethoxy)phenyl)-5-(7-methyl-7-((R)-2-methylpyrrolidin-1-yl)-6,7,8,9-tetrahydro-5H-benzo[7]annulen-2-yl)-1H-pyrazolo[3,4-b]pyridine]
